Assay results: PubChem BioAssay AID328 (DTP/NCI, 2004)
Values joined by “and” are separate entries in the source; they are usually repeats but may differ in a detail not shown here. Equal entries are not always repeated. Toxic doses and inconclusive results are not listed. How the source made its calls: active means survival T/C of 150% or more; inactive means T/C below 125% in these data.

System: BDF1 mice, P388 leukemia ip, median survival T/C
Experiment: NCI In Vivo Anticancer Drug Screen. Data for tumor model P388 Leukemia (intraperitoneal) in B6D2F1 (BDF1) mice
Conditions: endpoint: median survival time, higher = longer survival
Procedure, shortened: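 Mice carrying the transplantable tumour receive compound or vehicle. Survival is followed in each arm, and the treated measure is divided by the vehicle measure.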

[1] = dose: 50.0 mg/kg/injection, schedule: Q01DX009 (ip), vehicle: saline with Tween-80
[2] = dose: 100.0 mg/kg/injection, schedule: Q04DX003 (ip), vehicle: saline with Tween-80
[3] = dose: 200.0 mg/kg/injection, schedule: Q04DX003 (ip), vehicle: saline with Tween-80
[4] = dose: 400.0 mg/kg/injection, schedule: Q04DX003 (ip), vehicle: saline with Tween-80
[5] = dose: 100.0 mg/kg/injection, schedule: Q01DX009 (ip), vehicle: saline with Tween-80
[6] = dose: 200.0 mg/kg/injection, schedule: Q01DX009 (ip), vehicle: saline with Tween-80
[7] = dose: 100.0 mg/kg/injection, schedule: Q04DX003 (ip), vehicle: Klucel (hydroxypropylcellulose) (HPC)
[8] = dose: 200.0 mg/kg/injection, schedule: Q04DX003 (ip), vehicle: Klucel (hydroxypropylcellulose) (HPC)
[9] = dose: 400.0 mg/kg/injection, schedule: Q04DX003 (ip), vehicle: Klucel (hydroxypropylcellulose) (HPC)
[10] = dose: 25.0 mg/kg/injection, schedule: Q01DX009 (ip), vehicle: saline with Tween-80

Measured: T/C

COc1cc2ccc(CC3NCCc4cc5c(cc43)OCO5)cc2cc1OC (stereo not drawn)
inactive: dose: 22.0 mg/kg/injection, schedule: Q01DX009 (ip), vehicle: saline with Tween-80 105 % of control | dose: 33.0 mg/kg/injection, schedule: Q01DX009 (ip), vehicle: saline with Tween-80 110 % of control | dose: 50.0 mg/kg/injection, schedule: Q01DX009 (ip), vehicle: other 100 % of control | [1] 115 % of control | dose: 75.0 mg/kg/injection, schedule: Q01DX009 (ip), vehicle: saline with Tween-80 110 % of control | dose: 100.0 mg/kg/injection, schedule: Q01DX009 (ip), vehicle: other 100 % of control | dose: 100.0 mg/kg/injection, schedule: Q04DX003 (ip), vehicle: other 118 % of control | dose: 200.0 mg/kg/injection, schedule: Q04DX003 (ip), vehicle: other 118 % of control

COc1cc2c(cc1I)-c1c(cc(OC)c(OC)c1OC)CC[C@@H]2NC(C)=O
inactive: dose: 100.0 mg/kg/injection, schedule: Q04DX003 (ip), vehicle: saline sonified 100 % of control | dose: 200.0 mg/kg/injection, schedule: Q04DX003 (ip), vehicle: saline sonified 108 % of control | dose: 400.0 mg/kg/injection, schedule: Q04DX003 (ip), vehicle: saline sonified 100 % of control

O=NN(CCCl)C(=O)NC12CC3CC(CC(C3)C1)C2
inactive: dose: 5.0 mg/kg/injection, schedule: Q04DX003 (ip), vehicle: Klucel (hydroxypropylcellulose) (HPC) 100 % of control | dose: 15.0 mg/kg/injection, schedule: Q04DX003 (ip), vehicle: Klucel (hydroxypropylcellulose) (HPC) 95 % of control | dose: 30.0 mg/kg/injection, schedule: Q04DX003 (ip), vehicle: Klucel (hydroxypropylcellulose) (HPC) 104 % of control | dose: 175.0 mg/kg/injection, schedule: Q04DX003 (ip), vehicle: saline 103 % of control
active: dose: 37.5 mg/kg/injection, schedule: Q04DX003 (ip), vehicle: Klucel (hydroxypropylcellulose) (HPC) 166 % of control | dose: 75.0 mg/kg/injection, schedule: Q04DX003 (ip), vehicle: Klucel (hydroxypropylcellulose) (HPC) 250 % of control | [2] 285 % of control | dose: 150.0 mg/kg/injection, schedule: Q04DX003 (ip), vehicle: Klucel (hydroxypropylcellulose) (HPC) 250 % of control | [3] 285 % of control | [4] 285 % of control

O=C(O)c1sc(C(=O)O)c(-c2ccccc2)c1-c1ccccc1
inactive: dose: 6.25 mg/kg/injection, schedule: Q01DX009 (ip), vehicle: saline 89 % of control and 101 % of control | dose: 12.5 mg/kg/injection, schedule: Q01DX009 (ip), vehicle: saline 101 % of control and 115 % of control | dose: 25.0 mg/kg/injection, schedule: Q01DX009 (ip), vehicle: saline 87 % of control and 95 % of control | [1] 100 % of control | dose: 50.0 mg/kg/injection, schedule: Q01DX009 (ip), vehicle: saline 89 % of control and 100 % of control | [5] 100 % of control | [2] 90 % of control | [6] 100 % of control | [3] 95 % of control | [4] 104 % of control

Cc1ccc(NS(=O)(=O)c2ccc(F)cc2)cc1Cl
inactive: [7] 109 % of control | [8] 100 % of control | [9] 104 % of control

O=C(N/N=C\c1ccc(N(CCCl)CCCl)cc1)c1cccnc1
active: dose: 200.0 mg/kg/injection, schedule: Q01DX009 (ip), vehicle: gum acacia 172 % of control
inactive: dose: 100.0 mg/kg/injection, schedule: Q01DX009 (ip), vehicle: gum acacia 112 % of control

CCOC(=O)C(CC)(CCC(C)C)C(=O)OCC
inactive: [10] 95 % of control | [1] 95 % of control | [5] 100 % of control

COc1ccc(CNCC(=O)OCc2ccccc2)cc1
inactive: [10] 92 % of control | [1] 101 % of control | [5] 88 % of control | [2] 111 % of control | [6] 102 % of control | [3] 109 % of control

O=[N+]([O-])c1cccc(/C=C/C=C/c2ccc(S(=O)(=O)F)cc2Cl)c1
inactive: dose: 100.0 mg/kg/injection, schedule: Q01DX001 (ip), vehicle: Klucel (hydroxypropylcellulose) (HPC) 100 % of control | dose: 200.0 mg/kg/injection, schedule: Q01DX001 (ip), vehicle: Klucel (hydroxypropylcellulose) (HPC) 95 % of control | dose: 400.0 mg/kg/injection, schedule: Q01DX001 (ip), vehicle: Klucel (hydroxypropylcellulose) (HPC) 95 % of control

CC1CC(=O)C(O)C2(C)C1CC1OC(=O)C(OC(=O)c3ccccc3)C3C(C)C(O)C4(O)OCC13C42 (stereo not drawn)
inactive: dose: 0.12 mg/kg/injection, schedule: Q01DX009 (ip), vehicle: saline with Tween-80 110 % of control | dose: 0.25 mg/kg/injection, schedule: Q01DX009 (ip), vehicle: saline with Tween-80 121 % of control | dose: 1.0 mg/kg/injection, schedule: Q01DX009 (ip), vehicle: saline with Tween-80 118 % of control | dose: 2.0 mg/kg/injection, schedule: Q01DX009 (ip), vehicle: saline with Tween-80 121 % of control | dose: 4.0 mg/kg/injection, schedule: Q01DX009 (ip), vehicle: saline with Tween-80 112 % of control | dose: 8.0 mg/kg/injection, schedule: Q01DX009 (ip), vehicle: saline with Tween-80 116 % of control | dose: 16.0 mg/kg/injection, schedule: Q01DX009 (ip), vehicle: saline with Tween-80 118 % of control

O=C(/C=C/c1ccc(OCc2ccccc2)cc1)c1ccc(Cl)c(Cl)c1Cl
inactive: [1] 98 % of control | [5] 90 % of control | [6] 89 % of control

C=C(C)C12CC(COC(=O)c3ccccc3)C34OC5(OC1C3C1OC1(CO)C(O)C1(O)C(OC(=O)c3ccccc3)C(C)C(C(C)CCCCCCC5O)C14)O2 (stereo not drawn)
active: dose: 0.75 mg/kg/injection, schedule: Q01DX009 (ip), vehicle: saline 150 % of control | dose: 0.8 micrograms/kg/injection, schedule: Q01DX009 (ip), vehicle: saline with Tween-80 162 % of control | dose: 1.6 micrograms/kg/injection, schedule: Q01DX009 (ip), vehicle: saline + alcohol 238 % of control | dose: 1.6 micrograms/kg/injection, schedule: Q01DX009 (ip), vehicle: saline with Tween-80 175 % of control | dose: 3.1 micrograms/kg/injection, schedule: Q01DX009 (ip), vehicle: saline + alcohol 153 % of control | dose: 3.1 micrograms/kg/injection, schedule: Q01DX009 (ip), vehicle: saline with Tween-80 175 % of control | dose: 6.3 micrograms/kg/injection, schedule: Q01DX009 (ip), vehicle: saline + alcohol 175 % of control | dose: 12.5 micrograms/kg/injection, schedule: Q01DX009 (ip), vehicle: saline + alcohol 179 % of control
inactive: dose: 0.25 mg/kg/injection, schedule: Q01DX009 (ip), vehicle: saline 113 % of control | dose: 0.5 mg/kg/injection, schedule: Q01DX009 (ip), vehicle: saline 122 % of control | dose: 0.5 micrograms/kg/injection, schedule: Q01DX009 (ip), vehicle: saline + alcohol 111 % of control | dose: 0.8 micrograms/kg/injection, schedule: Q01DX009 (ip), vehicle: gum acacia 100 % of control | dose: 0.8 micrograms/kg/injection, schedule: Q01DX009 (ip), vehicle: saline + alcohol 124 % of control | dose: 1.0 micrograms/kg/injection, schedule: Q01DX009 (ip), vehicle: saline + alcohol 108 % of control | dose: 2.0 micrograms/kg/injection, schedule: Q01DX009 (ip), vehicle: saline + alcohol 104 % of control | dose: 6.3 micrograms/kg/injection, schedule: Q01DX009 (ip), vehicle: gum acacia 120 % of control | dose: 12.5 micrograms/kg/injection, schedule: Q01DX009 (ip), vehicle: gum acacia 118 % of control | dose: 25.0 micrograms/kg/injection, schedule: Q01DX009 (ip), vehicle: gum acacia 120 % of control | dose: 50.0 micrograms/kg/injection, schedule: Q01DX009 (ip), vehicle: gum acacia 124 % of control

CCCCCn1cnc2c(=S)nc[nH]c21
inactive: [5] 90 % of control | [6] 104 % of control | dose: 400.0 mg/kg/injection, schedule: Q01DX009 (ip), vehicle: saline with Tween-80 90 % of control

CC(=O)CC(=O)C(F)(F)F.CC(=O)CC(=O)C(F)(F)F.[O]=[V]
inactive: dose: 3.8 mg/kg/injection, schedule: Q01DX009 (ip), vehicle: Klucel (hydroxypropylcellulose) (HPC) 106 % of control | dose: 7.5 mg/kg/injection, schedule: Q01DX009 (ip), vehicle: Klucel (hydroxypropylcellulose) (HPC) 91 % of control

c1ccc(CC2(Cc3ccccc3)SCCS2)cc1
inactive: dose: 100.0 mg/kg/injection, schedule: Q01DX009 (ip), vehicle: Klucel (hydroxypropylcellulose) (HPC) 105 % of control | [7] 95 % of control | dose: 200.0 mg/kg/injection, schedule: Q01DX009 (ip), vehicle: Klucel (hydroxypropylcellulose) (HPC) 105 % of control | [8] 104 % of control | dose: 400.0 mg/kg/injection, schedule: Q01DX009 (ip), vehicle: Klucel (hydroxypropylcellulose) (HPC) 115 % of control | [9] 104 % of control
